Results reported in patent US3956287A, “7-[(2-Oxo-1-pyridinyl)acylamino]cephalosporin derivatives” (Richardson-Merrell Inc., priority 1973, dated 1976).
Values after ≈ are worked out from the molar mass of the structure shown. Structures can show the parent of a compound that is named as a salt. Where two headings read alike, the source gives them in different places.

Legend:
Streptococcus pyogenes = assay: in vitro antibacterial activity, minimal inhibiting concentration, Streptococcus pyogenes; assay type: cell-based; conditions: read-out: Minimal inhibiting concentration, Streptococcus pyogenes
Protocol: (§1) Specific nutrient agar plates are completely innoculated with the various test organisms. Filter paper discs are placed on the surface of the agar and wetted with 0.1 ml of a solution containing 10, 100 and 1,000 micrograms of the test compound. Zones of inhibition of microbial growth are used to indicate the antibacterial activity of the test compound against the various test organisms employed.
(§2) The following table summarizes the in vitro activity in terms of a concentration required to inhibit the growth of various typical bacteria for the following representative compounds: 6-[2-(2-oxo-1-pyridinyl)acetylamino]penicillanic acid, sodium salt (1), 7-[2-(2-oxo-1-pyridinyl)acetylamino]desacetoxycephalosporanic acid, sodium salt (2), 6-[2-(6-methyl-2-oxo-1-pyridinyl)acetylamino]pencillanic acid (3), 6-[2-(2-oxo-1-pyridinyl)-2-methylacetylamino]penicillanic acid (4), 6-[2-(5-chloro-2-oxo-1-pyridinyl)acetylamino]penicillanic acid (5), 6-[2-(5-nitro-2-oxo-1-pyridinyl)acetylamino]penicillanic acid (6), 6-[ 2-(5-amino-2-oxo-1-pyridinyl)acetylamino]penicillanic acid (7), 6-[2-(3-methoxy-2-oxo-1-pyridinyl)acetylamino]penicillanic acid (8), and 7-[2-(2-oxo-1-pyridinyl)acetylamino]cephalosporanic acid (9).

[1] = system: Salmonella schottmuelleri; assay: in vitro antibacterial activity, minimal inhibiting concentration, Salmonella schottmuelleri; assay type: cell-based; conditions: read-out: Minimal inhibiting concentration, Salmonella schottmuelleri
Protocol: as §1, §2

Acid Resistance = assay type: physicochemical
Staphylococcus aureus = assay: in vitro antibacterial activity, minimal inhibiting concentration, Staphylococcus aureus; assay type: cell-based; conditions: read-out: Minimal inhibiting concentration, Staphylococcus aureus
Protocol: as §1, §2

[2] = system: (Penicillinase Producing) Staphylococcus aureus; assay: in vitro antibacterial activity, minimal inhibiting concentration, penicillinase producing Staphylococcus aureus; assay type: cell-based; conditions: read-out: Minimal inhibiting concentration, (Penicillinase Producing) Staphylococcus aureus
Protocol: as §1, §2

[3] = in vitro, filter paper discs on nutrient agar, 0.1 ml of solution containing 10, 100 and 1,000 micrograms
[4] = penicillinase producing strain, in vitro, filter paper discs on nutrient agar, 0.1 ml of solution containing 10, 100 and 1,000 micrograms

| Structure (SMILES) | Acid Resistance (Acid Resistance) | MIC (Streptococcus pyogenes; [3]) | MIC [1, 3] | MIC (Staphylococcus aureus; [3]) | MIC [2, 4] | MIC (Streptococcus pyogenes) | MIC [1] | MIC (Staphylococcus aureus) | MIC [2] |
| --- | --- | --- | --- | --- | --- | --- | --- | --- | --- |
| CC1(C)S[C@@H]2C(NC(=O)Cn3ccccc3=O)C(=O)N2[C@H]1C(=O)[O-].[Na+] (some centres unmarked) [Compound 1, 6-[2-(2-oxo-1-pyridinyl)acetylamino]penicillanic acid, sodium salt] | Yes | – | – | – | – | 10 µg/mL | 1000 µg/mL | 10 µg/mL | 1000 µg/mL |
| CC1=C(C(=O)O)N2C(=O)C(NC(=O)Cn3ccccc3=O)C2SC1 (centres unmarked) [Compound 2, 7-[2-(2-oxo-1-pyridinyl)acetylamino]desacetoxycephalosporanic acid, sodium salt] | Yes | 1000 µg/mL | > 1000 µg/mL | 1000 µg/mL | > 1000 µg/mL | – | – | – | – |
| Cc1cccc(=O)n1CC(=O)NC1C(=O)N2C1SC(C)(C)C2C(=O)O (centres unmarked) [Compound 3, 6-[2-(6-methyl-2-oxo-1-pyridinyl)acetylamino]pencillanic acid] | Yes | 1000 µg/mL (≈ 2740 µM) | 1000 µg/mL (≈ 2740 µM) | 10 µg/mL (≈ 27.4 µM) | 1000 µg/mL (≈ 2740 µM) | – | – | – | – |
| CC1(C)S[C@@H]2C(NC(=O)Cn3cc(Cl)ccc3=O)C(=O)N2[C@H]1C(=O)O (some centres unmarked) [Compound 5, 6-[2-(5-chloro-2-oxo-1-pyridinyl)acetylamino]penicillanic acid] | Yes | 1000 µg/mL (≈ 2590 µM) | 1000 µg/mL (≈ 2590 µM) | 10 µg/mL (≈ 25.9 µM) | > 1000 µg/mL | – | – | – | – |
| CC1(C)S[C@@H]2C(NC(=O)Cn3cc([N+](=O)[O-])ccc3=O)C(=O)N2[C@H]1C(=O)O (some centres unmarked) [Compound 6, 6-[2-(5-nitro-2-oxo-1-pyridinyl)acetylamino]penicillanic acid] | Yes | > 1000 µg/mL | 1000 µg/mL (≈ 2520 µM) | 10 µg/mL (≈ 25.2 µM) | > 1000 µg/mL | – | – | – | – |
| CC(=O)OCC1=C(C(=O)O)N2C(=O)C(NC(=O)Cn3ccccc3=O)C2SC1 (centres unmarked) [Compound 9, 7-[2-(2-oxo-1-pyridinyl)acetylamino]cephalosporanic acid] | Yes | 10 µg/mL (≈ 24.5 µM) | 100 µg/mL (≈ 245 µM) | 10 µg/mL (≈ 24.5 µM) | 1000 µg/mL (≈ 2450 µM) | – | – | – | – |

More lines, in order of falling MIC [1, 3], values ahead:

| Acid Resistance (Acid Resistance) | MIC (Streptococcus pyogenes; [3]) | MIC [1, 3] | MIC (Staphylococcus aureus; [3]) | MIC [2, 4] | Structure (SMILES) | MIC (Streptococcus pyogenes) | MIC [1] | MIC (Staphylococcus aureus) | MIC [2] |
| --- | --- | --- | --- | --- | --- | --- | --- | --- | --- |
| Weak | 1000 µg/mL (≈ 2740 µM) | 1000 µg/mL (≈ 2740 µM) | 1000 µg/mL (≈ 2740 µM) | 1000 µg/mL (≈ 2740 µM) | CC(C(=O)NC1C(=O)N2[C@@H]1SC(C)(C)[C@@H]2C(=O)O)n1ccccc1=O (some centres unmarked) [Compound 4, 6-[2-(2-oxo-1-pyridinyl)-2-methylacetylamino]penicillanic acid] | – | – | – | – |
| Yes | > 1000 µg/mL | 1000 µg/mL (≈ 2730 µM) | 10 µg/mL (≈ 27.3 µM) | > 1000 µg/mL | CC1(C)S[C@@H]2C(NC(=O)Cn3cc(N)ccc3=O)C(=O)N2[C@H]1C(=O)O (some centres unmarked) [Compound 7, 6-[2-(5-amino-2-oxo-1-pyridinyl)acetylamino]penicillanic acid] | – | – | – | – |
| Yes | – | 1000 µg/mL (≈ 2620 µM) | 10 µg/mL (≈ 26.2 µM) | 1000 µg/mL (≈ 2620 µM) | COc1cccn(CC(=O)NC2C(=O)N3[C@@H]2SC(C)(C)[C@@H]3C(=O)O)c1=O (some centres unmarked) [Compound 8, 6-[2-(3-methoxy-2-oxo-1-pyridinyl)acetylamino]penicillanic acid] | – | – | – | – |
